Laboratory results taken from ChEMBL document CHEMBL2029248, “Fused bicycles as arylketone bioisosteres leading to potent, orally active thiadiazole H3 antagonists” (Bioorg Med Chem Lett, 2012).
Active and inactive are the calls of the source. The rule behind the calls is not given here.

What was measured:
Histamine H3 receptor [1] = target: Histamine H3 receptor (Homo sapiens, UniProt Q9Y5N1); experiment: Displacement of [3H]N-alpha-methylhistamine from recombinant human histamine H3 receptor expressed in HEK cell membranes after 30 mins by scintillation counting; set-up: species or system HEK293
Mus musculus [2] = experiment: Ex-vivo receptor occupancy in ICR mouse cortex assessed as displacement of [3H]N-alpha-methylhistamine from histamine H3 receptor at 10 mg/kg, po after 4 hrs post dose by scintillation counting; assay type: functional
Mus musculus [3] = experiment: Ex-vivo receptor occupancy in ICR mouse cortex assessed as displacement of [3H]N-alpha-methylhistamine from histamine H3 receptor at 30 mg/kg, po after 4 hrs post dose by scintillation counting; assay type: functional
Mus musculus [4] = experiment: Antidiabetic activity in STZ-induced diabetic ICR mouse DIO model assessed as glucose level at 30 mg/kg, po qd for 2 days; assay type: functional
Cytochrome P450 2C9 [5] = target: T1, Cytochrome P450 2C9 (Homo sapiens, UniProt P11712); experiment: Inhibition of CYP2C9 co-incubated with compound; assay type: ADME
Cytochrome P450 2C9 [6] = target: T1, Cytochrome P450 2C9; experiment: Inhibition of CYP2C9 preincubated with compound; assay type: ADME; details: read-out: INH
hERG = hERG (Homo sapiens, UniProt Q12809); experiment: Inhibition of human ERG at 10 uM
Mus musculus [7] = experiment: Antiobesity activity in STZ-induced diabetic ICR mouse DIO model assessed as change in body weight at 30 mg/kg, po qd for 2 days relative to vehicle-treated control; assay type: functional
Cytochrome P450 3A4 [8] = target: T2, Cytochrome P450 3A4 (Homo sapiens, UniProt P08684); experiment: Inhibition of CYP3A4 co-incubated with compound; assay type: ADME
Cytochrome P450 3A4 [9] = target: T2, Cytochrome P450 3A4; experiment: Inhibition of CYP3A4 preincubated with compound; assay type: ADME
Mus musculus [10] = experiment: Antiobesity activity in STZ-induced diabetic ICR mouse DIO model assessed as reduction in food intake at 30 mg/kg, po qd for 2 days relative to vehicle-treated control; assay type: functional; details: 48 h
Cytochrome P450 2D6 [11] = target: T3, Cytochrome P450 2D6 (Homo sapiens, UniProt P10635); experiment: Inhibition of CYP2D6 co-incubated with compound; assay type: ADME
Cytochrome P450 2D6 [12] = target: T3, Cytochrome P450 2D6; experiment: Inhibition of CYP2D6 preincubated with compound; assay type: ADME
Mus musculus [13] = experiment: Antidiabetic activity in STZ-induced diabetic ICR mouse DIO model at 30 mg/kg, po qd for 2 days; assay type: functional, organism-based; set-up: dose 30 mg/kg
Mus musculus [14] = experiment: Antiobesity activity in STZ-induced diabetic ICR mouse DIO model at 30 mg/kg, po qd for 2 days; assay type: functional, organism-based; set-up: dose 30 mg/kg
[15] = Drug uptake in rat brain at 10 mg/kg, po after 4 hrs; assay type: ADME, organism-based; set-up: dose 10 mg/kg, route oral; details: read-out: Drug uptake
[16] = AUC (0 to 6 hrs) in rat at 10 mg/kg, po; assay type: ADME, organism-based; set-up: time < 6 hr, dose 10 mg/kg, route oral; details: plasma
Histamine H3 receptor [17] = target: Histamine H3 receptor (Mus musculus, UniProt P58406); experiment: Displacement of [3H]N-alpha-methylhistamine from mouse histamine H3 receptor
Chain of Histamine H3 receptor (Mus musculus, UniProt P58406) (P58406 whole entry): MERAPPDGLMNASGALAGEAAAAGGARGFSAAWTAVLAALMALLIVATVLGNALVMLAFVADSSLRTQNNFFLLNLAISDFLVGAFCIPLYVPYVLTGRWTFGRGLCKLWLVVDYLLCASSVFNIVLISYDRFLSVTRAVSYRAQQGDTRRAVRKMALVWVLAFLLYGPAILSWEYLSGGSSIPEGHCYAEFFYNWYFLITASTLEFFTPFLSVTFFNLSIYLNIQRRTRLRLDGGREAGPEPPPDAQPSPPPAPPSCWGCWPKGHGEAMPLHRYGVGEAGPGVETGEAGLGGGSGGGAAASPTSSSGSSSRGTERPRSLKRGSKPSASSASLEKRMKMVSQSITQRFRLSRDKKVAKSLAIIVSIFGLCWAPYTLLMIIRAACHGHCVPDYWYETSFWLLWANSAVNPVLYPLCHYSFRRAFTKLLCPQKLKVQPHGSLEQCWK

T3 sequence (P10635 whole entry): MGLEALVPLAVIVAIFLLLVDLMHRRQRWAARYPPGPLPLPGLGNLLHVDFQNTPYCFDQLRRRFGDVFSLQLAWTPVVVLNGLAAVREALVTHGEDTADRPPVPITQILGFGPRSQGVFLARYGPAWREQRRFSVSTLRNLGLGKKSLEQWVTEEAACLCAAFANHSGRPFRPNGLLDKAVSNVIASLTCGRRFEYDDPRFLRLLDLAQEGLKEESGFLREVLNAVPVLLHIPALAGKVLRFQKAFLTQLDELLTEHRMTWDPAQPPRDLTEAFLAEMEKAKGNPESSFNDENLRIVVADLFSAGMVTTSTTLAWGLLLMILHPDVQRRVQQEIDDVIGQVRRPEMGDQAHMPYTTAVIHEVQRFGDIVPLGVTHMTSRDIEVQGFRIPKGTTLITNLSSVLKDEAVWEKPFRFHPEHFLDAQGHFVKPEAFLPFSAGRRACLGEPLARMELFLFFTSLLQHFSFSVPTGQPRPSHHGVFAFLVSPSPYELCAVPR
T2 sequence (P08684 whole entry): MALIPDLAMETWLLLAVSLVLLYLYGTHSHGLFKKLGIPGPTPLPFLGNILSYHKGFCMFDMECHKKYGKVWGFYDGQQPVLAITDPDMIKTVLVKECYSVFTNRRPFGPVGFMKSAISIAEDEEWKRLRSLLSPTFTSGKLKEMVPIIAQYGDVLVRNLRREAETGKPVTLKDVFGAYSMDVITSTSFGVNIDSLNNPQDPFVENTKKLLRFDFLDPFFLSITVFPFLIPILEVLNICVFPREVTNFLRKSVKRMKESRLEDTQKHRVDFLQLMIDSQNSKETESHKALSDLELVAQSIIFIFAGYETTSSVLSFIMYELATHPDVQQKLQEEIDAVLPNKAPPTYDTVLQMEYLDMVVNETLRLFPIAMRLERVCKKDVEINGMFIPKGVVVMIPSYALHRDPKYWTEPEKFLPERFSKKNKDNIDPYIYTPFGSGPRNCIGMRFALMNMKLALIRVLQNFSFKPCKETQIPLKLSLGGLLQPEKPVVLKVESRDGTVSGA
Chain of Histamine H3 receptor (Homo sapiens, UniProt Q9Y5N1) (Q9Y5N1 whole entry): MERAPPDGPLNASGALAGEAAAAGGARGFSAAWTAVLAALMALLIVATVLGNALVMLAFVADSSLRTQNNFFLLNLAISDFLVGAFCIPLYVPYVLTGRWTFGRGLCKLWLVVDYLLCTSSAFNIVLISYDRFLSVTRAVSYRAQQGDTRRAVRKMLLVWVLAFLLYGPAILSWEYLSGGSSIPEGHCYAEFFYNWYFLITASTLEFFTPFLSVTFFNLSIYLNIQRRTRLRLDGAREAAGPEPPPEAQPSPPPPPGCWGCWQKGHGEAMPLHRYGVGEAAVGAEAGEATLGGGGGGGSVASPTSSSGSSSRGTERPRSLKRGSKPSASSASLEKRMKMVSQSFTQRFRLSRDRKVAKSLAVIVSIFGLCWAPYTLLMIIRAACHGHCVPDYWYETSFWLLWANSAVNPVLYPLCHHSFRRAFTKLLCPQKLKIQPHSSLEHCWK
T1 sequence (P11712 whole entry): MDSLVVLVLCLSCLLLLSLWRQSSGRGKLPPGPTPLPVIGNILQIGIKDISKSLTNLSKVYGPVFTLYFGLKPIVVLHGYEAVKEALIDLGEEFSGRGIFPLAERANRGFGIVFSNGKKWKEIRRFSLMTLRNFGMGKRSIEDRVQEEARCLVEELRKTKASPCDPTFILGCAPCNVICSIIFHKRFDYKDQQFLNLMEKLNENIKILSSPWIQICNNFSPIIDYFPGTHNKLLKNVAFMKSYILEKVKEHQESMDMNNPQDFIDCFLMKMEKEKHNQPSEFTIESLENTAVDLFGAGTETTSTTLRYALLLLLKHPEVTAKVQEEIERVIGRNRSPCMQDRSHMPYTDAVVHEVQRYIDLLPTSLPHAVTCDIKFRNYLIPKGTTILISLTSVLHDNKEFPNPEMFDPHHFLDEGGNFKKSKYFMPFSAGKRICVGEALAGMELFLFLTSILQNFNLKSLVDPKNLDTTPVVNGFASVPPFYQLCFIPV
Chain of hERG (Q12809 whole entry): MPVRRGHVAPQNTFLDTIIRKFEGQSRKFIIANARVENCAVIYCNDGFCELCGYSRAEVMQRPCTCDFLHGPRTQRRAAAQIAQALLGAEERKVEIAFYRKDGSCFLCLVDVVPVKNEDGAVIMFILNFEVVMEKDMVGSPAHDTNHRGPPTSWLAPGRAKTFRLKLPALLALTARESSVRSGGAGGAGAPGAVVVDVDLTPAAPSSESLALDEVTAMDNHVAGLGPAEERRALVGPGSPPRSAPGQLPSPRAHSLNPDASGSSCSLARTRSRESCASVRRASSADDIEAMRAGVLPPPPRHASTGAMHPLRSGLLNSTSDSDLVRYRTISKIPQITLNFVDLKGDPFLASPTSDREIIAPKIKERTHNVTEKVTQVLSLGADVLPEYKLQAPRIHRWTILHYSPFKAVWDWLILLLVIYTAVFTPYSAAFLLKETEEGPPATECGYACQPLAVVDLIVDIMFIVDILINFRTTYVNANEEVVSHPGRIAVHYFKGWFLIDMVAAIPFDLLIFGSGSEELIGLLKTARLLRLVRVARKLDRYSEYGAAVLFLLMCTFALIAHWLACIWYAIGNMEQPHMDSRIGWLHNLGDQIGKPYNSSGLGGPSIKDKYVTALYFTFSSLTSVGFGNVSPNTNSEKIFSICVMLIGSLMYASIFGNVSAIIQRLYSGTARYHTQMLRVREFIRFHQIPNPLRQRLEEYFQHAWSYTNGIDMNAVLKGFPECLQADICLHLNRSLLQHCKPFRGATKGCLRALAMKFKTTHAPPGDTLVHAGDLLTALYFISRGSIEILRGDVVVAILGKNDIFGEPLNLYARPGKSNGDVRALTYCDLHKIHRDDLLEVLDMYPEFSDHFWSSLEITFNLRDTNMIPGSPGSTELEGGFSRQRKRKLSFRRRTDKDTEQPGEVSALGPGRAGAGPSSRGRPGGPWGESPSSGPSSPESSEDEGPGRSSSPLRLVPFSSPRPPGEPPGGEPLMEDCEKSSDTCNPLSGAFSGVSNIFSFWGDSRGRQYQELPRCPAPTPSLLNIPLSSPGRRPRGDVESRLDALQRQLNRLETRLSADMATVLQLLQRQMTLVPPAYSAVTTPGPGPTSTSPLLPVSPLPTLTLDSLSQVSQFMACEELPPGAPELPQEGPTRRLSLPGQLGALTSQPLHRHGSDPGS

Which Ki (Histamine H3 receptor [1]) does the source give for O=c1ccc2ccc(-c3nnc(N4CCC(N5CCCCC5)CC4)s3)cc2[nH]1 here?
Its Ki is 0.0359 µM.

And the Occ (Mus musculus [2])?
Its Occ is 2%.

With c1cc(-c2nnc(N3CCC(N4CCCCC4)CC3)s2)c2ccncc2c1 as the compound, how does the Ki (Histamine H3 receptor [1]) read?
The Ki was 0.0178 µM.

And the Occ (Mus musculus [2])?
The Occ was 19%.

With CC(O)c1cccc(-c2nnc(N3CCC(N4CCCCC4)CC3)s2)c1 (centres undefined) as the compound, how does the Ki (Histamine H3 receptor [1]) read?
The Ki was 0.029 µM.

Which Ki (Histamine H3 receptor [1]) does the source give for O=c1ccc2cc(-c3nnc(N4CCC(N5CCCCC5)CC4)s3)ccc2[nH]1 here?
The Ki was 0.01 µM.

What about the Occ (Mus musculus [2]) of the same compound?
Its Occ is 25%.

Which Occ (Mus musculus [3]) does the source give for CC(=O)c1cccc(-c2nnc(N3CCC(N4CCCCC4)CC3)s2)c1 here?
Its Occ is 62%.

What about the Activity (Mus musculus [4]) of the same compound?
The Activity was 7.08 mg/mL.

What about the INH (Cytochrome P450 2C9 [5]) of the same compound?
Its INH is over 20 µM.

And the IC50 (Cytochrome P450 2C9 [6])?
The IC50 was over 20 µM.

What about the inhibition at 10 µM (hERG) of the same compound?
Its inhibition at 10 µM is 40%.

What about the Activity (Mus musculus [7]) of the same compound?
The Activity was -1.01%.

What about the INH (Cytochrome P450 3A4 [8]) of the same compound?
Its INH is over 20 µM.

And the INH (Cytochrome P450 3A4 [9])?
The INH was over 20 µM.

What about the inhibition in vivo at 30 mg/kg (Mus musculus [10]) of the same compound?
The inhibition in vivo at 30 mg/kg was 5.61%.

And the INH (Cytochrome P450 2D6 [11])?
The INH was over 20 µM.

And the INH (Cytochrome P450 2D6 [12])?
Its INH is over 20 µM.

What does the source list for O=c1ccc2c(-c3nnc(N4CCC(N5CCCCC5)CC4)s3)cccc2[nH]1?
Ki (Histamine H3 receptor [1]): 0.02 µM; Occ (Mus musculus [2]): 6%

Which results are given for O=C(c1cccc(-c2nnc(N3CCC(N4CCCCC4)CC3)s2)n1)N1CCC1?
Ki (Histamine H3 receptor [1]): 0.0044 µM; Occ (Mus musculus [2]): 6%

For c1cnc2c(-c3nnc(N4CCC(N5CCCCC5)CC4)s3)cccc2c1, which Activity (Mus musculus [13]) is on record?
The Activity was “inactive”.

What about the Ki (Histamine H3 receptor [1]) of the same compound?
The Ki was 0.0046 µM.

What about the Activity (Mus musculus [14]) of the same compound?
The Activity was “inactive”.

And the concentration at 4 h [15]?
The concentration at 4 h was 110 ng/g.

And the AUC(0-t) at 6 h [16]?
Its AUC(0-t) at 6 h is 530 ng·h/mL.

What about the Occ (Mus musculus [2]) of the same compound?
Its Occ is 77%.

What about the Ki (Histamine H3 receptor [17]) of the same compound?
The Ki was 0.0072 µM.

For CN(C)C(=O)c1cccc(-c2nnc(N3CCC(N4CCCCC4)CC3)s2)c1, which Ki (Histamine H3 receptor [1]) is on record?
The Ki was 0.192 µM.

With O=c1cccnn1-c1cccc(-c2nnc(N3CCC(N4CCCCC4)CC3)s2)c1 as the compound, how does the Ki (Histamine H3 receptor [1]) read?
Its Ki is 0.012 µM.

And the Occ (Mus musculus [2])?
Its Occ is 25%.

What does the source list for Cc1nnc2ccc(-c3nnc(N4CCC(N5CCCCC5)CC4)s3)cn12?
Activity (Mus musculus [13]): inactive; Ki (Histamine H3 receptor [1]): 0.0034 µM; Activity (Mus musculus [14]): inactive; concentration at 4 h [15]: 25 ng/g; AUC(0-t) at 6 h [16]: 1200 ng·h/mL; Occ (Mus musculus [2]): 34%; Ki (Histamine H3 receptor [17]): 0.0024 µM

Which results are given for c1cc(-c2nnc(N3CCC(N4CCCCC4)CC3)s2)n2nccc2c1?
Ki (Histamine H3 receptor [1]): 0.0032 µM; Occ (Mus musculus [2]): 22%

For Cc1nc2cc(-c3nnc(N4CCC(N5CCCCC5)CC4)s3)ccc2o1, which Ki (Histamine H3 receptor [1]) is on record?
Its Ki is 0.0245 µM.

Which Ki (Histamine H3 receptor [1]) does the source give for CC(=O)Nc1cccc(-c2nnc(N3CCC(N4CCCCC4)CC3)s2)c1 here?
The Ki was 0.0165 µM.

Which Activity (Mus musculus [13]) does the source give for O=c1ccoc2ccc(-c3nnc(N4CCC(N5CCCCC5)CC4)s3)cc12 here?
Its Activity is “inactive”.

And the Ki (Histamine H3 receptor [1])?
Its Ki is 0.0127 µM.

And the Activity (Mus musculus [14])?
The Activity was “inactive”.

And the concentration at 4 h [15]?
Its concentration at 4 h is 268 ng/g.

And the AUC(0-t) at 6 h [16]?
Its AUC(0-t) at 6 h is 1300 ng·h/mL.

And the Occ (Mus musculus [2])?
Its Occ is 84%.

And the Ki (Histamine H3 receptor [17])?
The Ki was 0.012 µM.

Which Ki (Histamine H3 receptor [1]) does the source give for O=C1COc2ccc(-c3nnc(N4CCC(N5CCCCC5)CC4)s3)cc2N1 here?
The Ki was 0.0221 µM.

For Cc1cc(=O)c2cc(-c3nnc(N4CCC(N5CCCCC5)CC4)s3)ccc2o1, which Ki (Histamine H3 receptor [1]) is on record?
Its Ki is 0.0828 µM.

And the AUC(0-t) at 6 h [16]?
The AUC(0-t) at 6 h was 8000 ng·h/mL.

For O=c1ccnc2c(-c3nnc(N4CCC(N5CCCCC5)CC4)s3)cccn12, which Activity (Mus musculus [13]) is on record?
Its Activity is “inactive”.

What about the Ki (Histamine H3 receptor [1]) of the same compound?
The Ki was 0.0021 µM.

And the Activity (Mus musculus [14])?
Its Activity is “inactive”.

And the concentration at 4 h [15]?
Its concentration at 4 h is 2670 ng/g.

And the AUC(0-t) at 6 h [16]?
Its AUC(0-t) at 6 h is 840 ng·h/mL.

And the Occ (Mus musculus [2])?
Its Occ is 94%.

And the Ki (Histamine H3 receptor [17])?
The Ki was 0.0026 µM.

Which Ki (Histamine H3 receptor [1]) does the source give for O=C(c1cccc(-c2nnc(N3CCC(N4CCCCC4)CC3)s2)c1)N1CCC1 here?
Its Ki is 0.0789 µM.

Which results are given for O=c1ccnc2ccc(-c3nnc(N4CCC(N5CCCCC5)CC4)s3)cn12?
Ki (Histamine H3 receptor [1]): 0.013 µM; glucose change (Mus musculus [4]): -87 mg/dL; INH (Cytochrome P450 2C9 [5]): > 20 µM; IC50 (Cytochrome P450 2C9 [6]): > 20 µM; concentration at 4 h [15]: 1340 ng/g; inhibition at 10 µM (hERG): 7%; Activity (Mus musculus [7]): -3.02%; INH (Cytochrome P450 3A4 [8]): > 20 µM; INH (Cytochrome P450 3A4 [9]): > 20 µM; AUC(0-t) at 6 h [16]: 7300 ng·h/mL; Occ (Mus musculus [2]): 69%; Ki (Histamine H3 receptor [17]): 0.025 µM; inhibition in vivo at 30 mg/kg (Mus musculus [10]): 33.6%; INH (Cytochrome P450 2D6 [11]): > 20 µM; INH (Cytochrome P450 2D6 [12]): > 20 µM

For Cc1nnc(-c2cccc(-c3nnc(N4CCC(N5CCCCC5)CC4)s3)c2)o1, which Activity (Mus musculus [13]) is on record?
Its Activity is “inactive”.

And the Ki (Histamine H3 receptor [1])?
Its Ki is 0.0228 µM.

What about the Activity (Mus musculus [14]) of the same compound?
The Activity was “inactive”.

What about the concentration at 4 h [15] of the same compound?
The concentration at 4 h was 1290 ng/g.

What about the AUC(0-t) at 6 h [16] of the same compound?
The AUC(0-t) at 6 h was 2500 ng·h/mL.

What about the Occ (Mus musculus [2]) of the same compound?
The Occ was 46%.

And the Ki (Histamine H3 receptor [17])?
The Ki was 0.04 µM.

For O=C1Cc2cc(-c3nnc(N4CCC(N5CCCCC5)CC4)s3)ccc2N1, which Ki (Histamine H3 receptor [1]) is on record?
Its Ki is 0.0644 µM.
